Tests used:
[1] = molecular target: T1, AChE from electric eel (EeAChE) (Electrophorus electricus, UniProt O42275); assay: Inhibition of AChE, modified Ellman's spectrophotometric method; format: biochemical, electric eel (Electrophorus electricus L.); conditions: for IC50: EeAChE, Ellman's method, mean ± SD, n = three independent experiments
T1 construct: purchased Merck (Prague, Czech Republic)
From the text: (§1) The heterocycles 3 were screened for their ability to interfere with the function of AChE from electric eel (EeAChE) and BChE from equine serum (EqBChE) using Ellman’s method (Table 1). Their activities are expressed as the concentration producing 50% inhibition of enzymatic activity (IC50). In addition, we calculated selectivity indexes (SI) that quantify the selectivity for AChE as more inhibited cholinesterase. SI is the ratio of IC50 for BChE/IC50 for AChE.
(§2) Enzyme inhibition activity of 3 quantified as IC50 values was determined spectrophotometrically using modified Ellman’s method. […] The enzyme activity is measured indirectly by determination of 5-mercapto-2-nitrobenzoic acid ion formed after reaction of the thiol reagent 5,5′-disulfanediyl-bis(2-nitrobenzoic acid) (DTNB) and thiocholine, a product of acetylthiocholine (ATCh) and butyrylthiocholine (BTCh) as substrates for hydrolysis by AChE and BChE, respectively.
(§3) The enzyme activity in final reaction mixture (2000 µL) was 0.2 U/mL, concentration of ATCh (or BTCh) 40 µM and concentration of DTNB 100 µM for all reactions. The compounds 3 were dissolved in DMSO and then diluted in demineralized water (conductivity 3 μS, equipment supplier BKG Water Treatment, Hradec Králové, Czech Republic) to the concentration of 1000 µM. […] The final concentration of DMSO was 0.2%. All experiments were carried in triplicates. The average values of reaction rate (v0-uninhibited reaction, vi-inhibited reaction) were used for construction of the dependence v0/vi vs. concentration of inhibitor. From obtained equation of regression curve, IC50 values were calculated.
(§4) Acetylcholinesterase was used from electric eel (Electrophorus electricus L.; EeAChE) and butyrylcholinesterase originated from equine serum (EqBChE).

[2] = molecular target: T2, BChE from equine serum (EqBChE) (Equus caballus, UniProt P81908); assay: Inhibition of BChE, modified Ellman's spectrophotometric method; format: biochemical; conditions: EqBChE, Ellman's method; mean ± SD, n = three independent experiments
T2 construct: butyrylcholinesterase originated from equine serum (EqBChE); purchased Merck (Prague, Czech Republic); host or cells: equine serum
T2 sequence (P81908 whole entry): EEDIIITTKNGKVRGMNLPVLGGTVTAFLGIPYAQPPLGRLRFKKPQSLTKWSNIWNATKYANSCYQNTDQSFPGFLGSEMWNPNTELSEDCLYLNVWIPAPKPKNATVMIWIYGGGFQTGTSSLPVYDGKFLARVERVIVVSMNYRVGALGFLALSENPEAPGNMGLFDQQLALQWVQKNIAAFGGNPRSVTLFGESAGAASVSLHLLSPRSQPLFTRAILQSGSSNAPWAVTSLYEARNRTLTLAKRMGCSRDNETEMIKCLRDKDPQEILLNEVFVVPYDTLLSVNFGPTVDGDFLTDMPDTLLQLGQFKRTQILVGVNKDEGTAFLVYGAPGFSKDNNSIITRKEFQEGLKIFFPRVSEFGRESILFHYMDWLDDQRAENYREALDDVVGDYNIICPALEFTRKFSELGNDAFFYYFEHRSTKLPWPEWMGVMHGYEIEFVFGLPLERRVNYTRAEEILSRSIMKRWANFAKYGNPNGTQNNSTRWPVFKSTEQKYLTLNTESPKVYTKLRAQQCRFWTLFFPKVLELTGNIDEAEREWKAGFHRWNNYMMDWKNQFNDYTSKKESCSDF
From the text: as §1, §2, §3, §4

T1 sequence (O42275 24-633): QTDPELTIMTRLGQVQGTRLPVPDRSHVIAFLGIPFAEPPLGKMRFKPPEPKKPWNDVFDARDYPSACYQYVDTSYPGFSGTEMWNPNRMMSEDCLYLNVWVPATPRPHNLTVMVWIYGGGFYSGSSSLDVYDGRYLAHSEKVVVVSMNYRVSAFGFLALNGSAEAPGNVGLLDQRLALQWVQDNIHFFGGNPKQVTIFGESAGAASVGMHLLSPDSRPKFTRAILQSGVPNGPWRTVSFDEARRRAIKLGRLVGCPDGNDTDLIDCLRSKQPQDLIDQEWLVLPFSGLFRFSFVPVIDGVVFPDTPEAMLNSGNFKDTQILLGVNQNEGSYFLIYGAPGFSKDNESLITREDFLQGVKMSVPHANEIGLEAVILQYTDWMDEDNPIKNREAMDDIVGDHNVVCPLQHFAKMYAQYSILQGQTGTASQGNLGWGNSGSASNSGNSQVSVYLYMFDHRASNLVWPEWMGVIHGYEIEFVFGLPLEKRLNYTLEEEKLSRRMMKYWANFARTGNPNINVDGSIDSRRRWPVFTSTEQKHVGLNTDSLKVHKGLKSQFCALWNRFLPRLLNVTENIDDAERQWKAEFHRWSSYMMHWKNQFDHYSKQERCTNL

SMILES | IC50 [1] [µM] | BChE/AChE Ratio (selectivity index, IC50 for BChE/IC50 for AChE) [1] | IC50 [2] [µM]
CCCCCCCCCCCCNc1nnc(-c2ccccc2)o1 [3a, N-Dodecyl-5-phenyl-1,3,4-oxadiazol-2-amine] | 40.1 ± 0.54 | 3.7 | 149 ± 1.69
CCCCCCCCCCCCNc1nnc(-c2ccc(C)cc2)o1 [3b, N-Dodecyl-5-(p-tolyl)-1,3,4-oxadiazol-2-amine] | 34.6 ± 0.96 | 2.6 | 90 ± 2.35
CCCCCCCCCCCCNc1nnc(-c2ccc(OC)cc2)o1 [3c, N-Dodecyl-5-(4-methoxyphenyl)-1,3,4-oxadiazol-2-amine] | 33.86 ± 0.27 | 6.6 | 225 ± 11
CCCCCCCCCCCCNc1nnc(-c2ccc(C(C)(C)C)cc2)o1 [3d, 5-[4-(tert-Butyl)phenyl]-N-dodecyl-1,3,4-oxadiazol-2-amine] | 65.2 ± 0.72 | 2.3 | 152 ± 6.02
CCCCCCCCCCCCNc1nnc(-c2ccc([N+](=O)[O-])cc2)o1 [3e, N-Dodecyl-5-(4-nitrophenyl)-1,3,4-oxadiazol-2-amine] | 70.46 ± 0.59 | 1.5 | 105.2 ± 0.94
CCCCCCCCCCCCNc1nnc(-c2ccc(N(C)C)cc2)o1 [3f, 5-[4-(Dimethylamino)phenyl]-N-dodecyl-1,3,4-oxadiazol-2-amine] | 87.99 ± 0.81 | 3.6 | 316 ± 6.22
CCCCCCCCCCCCNc1nnc(-c2ccc(F)cc2)o1 [3g, N-Dodecyl-5-(4-fluorophenyl)-1,3,4-oxadiazol-2-amine] | 36.7 ± 1.59 | 7.3 | 266.7 ± 2.59
CCCCCCCCCCCCNc1nnc(-c2ccc(Cl)cc2)o1 [3h, 5-(4-Chlorophenyl)-N-dodecyl-1,3,4-oxadiazol-2-amine] | 50.2 ± 1.88 | 8.8 | 444 ± 8.5
CCCCCCCCCCCCNc1nnc(-c2ccc(Br)cc2)o1 [3i, 5-(4-Bromophenyl)-N-dodecyl-1,3,4-oxadiazol-2-amine] | 40 ± 0.98 | 9.2 | 369 ± 5.82
CCCCCCCCCCCCNc1nnc(-c2ccc(I)cc2)o1 [3j, N-Dodecyl-5-(4-iodophenyl)-1,3,4-oxadiazol-2-amine] | 37.8 ± 1.83 | 12.7 | 482 ± 6.15

— PMC9029695, “5-Aryl-1,3,4-oxadiazol-2-amines Decorated with Long Alkyl and Their Analogues: Synthesis, Acetyl- and Butyrylcholinesterase Inhibition and Docking Study” (Pharmaceuticals, 2022)
